Legend:
MOF-KAT8 [1] = target: T1, MOF-KAT8 (Homo sapiens, UniProt Q9H7Z6); experiment: Acetyltransferase biochemical assay (AlphaScreen), KAT8; conditions: Table 4 (MOF-KAT8); 0.4 μM Acetyl coenzyme A, histone H4, 20 nM enzyme
T1 sequence (Q9H7Z6 177-447): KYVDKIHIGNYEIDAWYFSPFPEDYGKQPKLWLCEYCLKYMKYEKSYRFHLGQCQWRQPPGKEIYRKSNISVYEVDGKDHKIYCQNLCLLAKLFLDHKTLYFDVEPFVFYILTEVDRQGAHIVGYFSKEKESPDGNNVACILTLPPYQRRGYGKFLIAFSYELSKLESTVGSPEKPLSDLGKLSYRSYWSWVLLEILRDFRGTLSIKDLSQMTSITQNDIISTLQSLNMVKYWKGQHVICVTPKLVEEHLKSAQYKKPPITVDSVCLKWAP

HBO-KAT7 [2] = target: T2, HBO-KAT7 (Homo sapiens, UniProt O95251); experiment: Acetyltransferase biochemical assay (AlphaScreen), KAT7; conditions: Table 3 (HBO-KAT7); 0.4 μM Acetyl coenzyme A, histone H3.1, 40 nM enzyme
T2 construct: encoding amino acid residues 325 to 611 (Uniprot 095251-1) of human KAT7; made in house; host or cells: E. coli BL21 DE3 RIL

TIP60-KAT5 [3] = target: T3, TIP60-KAT5 (Homo sapiens, UniProt Q92993); experiment: Revised Acetyltransferase Biochemical Assay, KAT5; conditions: 10 nM KAT5, 1 μM AcCoA, 100 nM histone H4, 90 min
T3 construct: encoding amino acid residues 2 to 461 (Uniprot Q92993-2) of human KAT5 isoform; made in house; host or cells: E. coli BL21 DE3

[4] = test system: histone H3K14 acetylation (HBO1 mediated) in U2OS cells; experiment: Histone H3 Lysine 14 Acetylation Biomarker Assay (96 well, U2OS); assay type: cell-based; conditions: Table 6, H3K14ac, 24 hours incubation, serum free medium
Protocol: Compounds may be tested for their ability to inhibit acetylation of the histone H3K14 marker (which is HBO1 mediated) in the following assay:
(§1) The cell line U2OS was seeded at a density of 12,000 cells per well in 96 well optical quality tissue culture plates in RPMI medium and 10% foetal bovine serum, and allowed to adhere for 24 hours under standard culture conditions (37 degree Celsius, 5% CO2). At the end of this period the cells were washed with serum free medium. Compound dilutions prepared in DMSO were added to the serum free medium, with negative control wells reserved for treatment with DMSO only and positive controls receiving a potent inhibitor compound (e.g. Example 36 in WO2016/198507) at 10 μM concentration. After incubation for 24 hours, the cells were fixed with 3.7% formaldehyde in PBS for 20 minutes at room temperature, washed with phosphate buffer saline containing 0.1% Tween 20 and blocked with Odyssey blocking buffer (LI-COR, Lincoln, Nebr.) containing 0.1% TritonX100. Anti-H3K14ac specific antibody (Cell Signalling Technologies) in Odyssey blocking buffer containing 0.1% Tween 20 was added and incubated for 14 hours at 4 degree Celsius. After washing, a secondary antibody labelled with Alexa647 dye (LifeTechnologies) and Hoechst 33342 (1 μg/mL, SigmaAldrich) were added for 1 hour incubation. Plates were washed and read on a PerkinElmer Phenix high content imaging platform. Using a Columbus image analysis pipeline, individual nuclei were located by Hoechst 33342 stain and the acetylation level was calculated from the Alexa647-related intensity in the same area. The resulting mean intensity per cell was directly converted to percent inhibition relative to controls on the same plate and the data fitted against a four-parameter logistic model to determine the 50% inhibitory concentration (IC50).

[5] = test system: histone H2A.Z Lysine 7 acetylation (TIP60 mediated) in U2OS cells; experiment: H2A.Z Lysine 7 Acetylation Biomarker Assay (96 well, U2OS); assay type: cell-based; conditions: Table 7, H2A.Z K7ac, 24 hours incubation, serum free medium
Protocol: To discover a global TIP60/KAT5 cellular biomarker useful for monitoring PD responses of TIP60 inhibition in vitro and in vivo, various histone modifications were assessed for TIP60 dependence through genetic (TIP60 siRNA and CRISPR/Cas9) or TIP60 pharmacological inhibition. This analysis clearly identified acetylation of the histone variant H2A.Z at Lysine 7 (H2A.ZK7ac) as a global histone mark which is TIP60-dependent in both human and mouse cells. To a lesser extent, TIP60 also acetylated lysine 4 and 11 of H2A.Z.
Compounds may be tested for their ability to inhibit the histone H2A.Z Lysine 7 acetylation biomarker (which is TIP60 mediated) in the following assay:
as §1, with “of 9,000” for “of 12,000”, “Example 146)” for “Example 36 in WO2016/198507)”, “at 20” for “at 10”, “TritonX100. Anti-H2A.Z K7ac” for “TritonX100. Anti-H3K14ac”, “antibody (Abcam)” for “antibody (Cell Signalling Technologies)”, “33342 (10 μM,” for “33342 (1 μg/mL,”

TIP60-KAT5 [6] = target: T3, TIP60-KAT5; experiment: Acetyltransferase biochemical assay (AlphaScreen), KAT5; conditions: Table 1 (TIP60-KAT5); 0.4 μM Acetyl coenzyme A, histone H4, 10 nM enzyme
MOF-KAT8 [7] = target: T1, MOF-KAT8; experiment: Revised Acetyltransferase Biochemical Assay, KAT8; conditions: read-out: IC50 (MOF-KAT8); Revised acetyltransferase biochemical assay; 20 nM KAT8, 1 μM AcCoA, 100 nM histone H4, 90 min
HBO-KAT7 [8] = target: T2, HBO-KAT7; experiment: Revised Acetyltransferase Biochemical Assay, KAT7; conditions: Table 9 (HBO-KAT7), 1 μM Acetyl coenzyme A
MOZ-KAT6A [9] = target: T4, MOZ-KAT6A (Homo sapiens, UniProt Q92794, A567V); experiment: Acetyltransferase biochemical assay (AlphaScreen), KAT6A; conditions: Table 2 (MOZ-KAT6A); 10 μM Acetyl coenzyme A, histone H3.1, 5 nM enzyme
T4 construct: encoding amino acid residues 507 to 778 (Uniprot Q92794-1) of human KAT6A; made in house; host or cells: E. coli BL21 DE3

MOZ-KAT6A [10] = target: T4, MOZ-KAT6A; experiment: Revised Acetyltransferase Biochemical Assay, KAT6A; conditions: Table 8 (MOZ-KAT6A), 1 μM Acetyl coenzyme A
[11] = test system: histone H3K23 acetylation (KATE mediated) in U2OS cells; experiment: Histone H3 Lysine 23 Acetylation Biomarker Assay (U2OS); assay type: cell-based; conditions: 96 well, 24 hours incubation
Method in brief: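 U2OS cells were treated with compound for 24 h, then fixed and immunostained for H3K23ac with Hoechst nuclear counterstain. Per-nucleus Alexa647 intensity was quantified by high-content imaging and converted to % inhibition against DMSO and 10 μM reference-inhibitor controls. IC50 was derived from a four-parameter logistic fit.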

QKF-KAT6B [12] = target: T5, QKF-KAT6B (Homo sapiens, UniProt Q8WYB5); experiment: Revised Acetyltransferase Biochemical Assay, KAT6B; conditions: 8 nM KAT6B, 1 μM AcCoA, 100 nM histone H3.1, 90 min
T5 construct: purchased SignalChem K315-381BG
Excerpt: KAT6B was obtained from SignalChem, catalog ID: K315-381BG

QKF-KAT6B [13] = target: T5, QKF-KAT6B; experiment: Acetyltransferase biochemical assay (AlphaScreen), KAT6B; conditions: Table 5 (QKF-KAT6B); 0.4 μM Acetyl coenzyme A, histone H3.1, 8 nM enzyme

T3 sequence (Q92993 2-461 isoform Q92993-2): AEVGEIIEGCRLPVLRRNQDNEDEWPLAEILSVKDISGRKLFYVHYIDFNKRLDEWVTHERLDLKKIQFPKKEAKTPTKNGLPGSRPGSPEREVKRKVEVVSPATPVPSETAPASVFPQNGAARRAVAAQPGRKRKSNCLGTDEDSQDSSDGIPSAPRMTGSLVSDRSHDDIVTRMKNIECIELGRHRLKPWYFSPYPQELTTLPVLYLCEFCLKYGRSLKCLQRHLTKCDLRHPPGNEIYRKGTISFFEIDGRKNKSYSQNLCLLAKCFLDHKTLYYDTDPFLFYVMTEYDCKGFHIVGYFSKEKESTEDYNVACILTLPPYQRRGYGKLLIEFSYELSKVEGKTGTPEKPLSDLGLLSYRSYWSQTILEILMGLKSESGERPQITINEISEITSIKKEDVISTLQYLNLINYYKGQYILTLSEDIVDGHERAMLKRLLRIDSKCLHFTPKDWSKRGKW
T5 sequence (Q8WYB5 whole entry): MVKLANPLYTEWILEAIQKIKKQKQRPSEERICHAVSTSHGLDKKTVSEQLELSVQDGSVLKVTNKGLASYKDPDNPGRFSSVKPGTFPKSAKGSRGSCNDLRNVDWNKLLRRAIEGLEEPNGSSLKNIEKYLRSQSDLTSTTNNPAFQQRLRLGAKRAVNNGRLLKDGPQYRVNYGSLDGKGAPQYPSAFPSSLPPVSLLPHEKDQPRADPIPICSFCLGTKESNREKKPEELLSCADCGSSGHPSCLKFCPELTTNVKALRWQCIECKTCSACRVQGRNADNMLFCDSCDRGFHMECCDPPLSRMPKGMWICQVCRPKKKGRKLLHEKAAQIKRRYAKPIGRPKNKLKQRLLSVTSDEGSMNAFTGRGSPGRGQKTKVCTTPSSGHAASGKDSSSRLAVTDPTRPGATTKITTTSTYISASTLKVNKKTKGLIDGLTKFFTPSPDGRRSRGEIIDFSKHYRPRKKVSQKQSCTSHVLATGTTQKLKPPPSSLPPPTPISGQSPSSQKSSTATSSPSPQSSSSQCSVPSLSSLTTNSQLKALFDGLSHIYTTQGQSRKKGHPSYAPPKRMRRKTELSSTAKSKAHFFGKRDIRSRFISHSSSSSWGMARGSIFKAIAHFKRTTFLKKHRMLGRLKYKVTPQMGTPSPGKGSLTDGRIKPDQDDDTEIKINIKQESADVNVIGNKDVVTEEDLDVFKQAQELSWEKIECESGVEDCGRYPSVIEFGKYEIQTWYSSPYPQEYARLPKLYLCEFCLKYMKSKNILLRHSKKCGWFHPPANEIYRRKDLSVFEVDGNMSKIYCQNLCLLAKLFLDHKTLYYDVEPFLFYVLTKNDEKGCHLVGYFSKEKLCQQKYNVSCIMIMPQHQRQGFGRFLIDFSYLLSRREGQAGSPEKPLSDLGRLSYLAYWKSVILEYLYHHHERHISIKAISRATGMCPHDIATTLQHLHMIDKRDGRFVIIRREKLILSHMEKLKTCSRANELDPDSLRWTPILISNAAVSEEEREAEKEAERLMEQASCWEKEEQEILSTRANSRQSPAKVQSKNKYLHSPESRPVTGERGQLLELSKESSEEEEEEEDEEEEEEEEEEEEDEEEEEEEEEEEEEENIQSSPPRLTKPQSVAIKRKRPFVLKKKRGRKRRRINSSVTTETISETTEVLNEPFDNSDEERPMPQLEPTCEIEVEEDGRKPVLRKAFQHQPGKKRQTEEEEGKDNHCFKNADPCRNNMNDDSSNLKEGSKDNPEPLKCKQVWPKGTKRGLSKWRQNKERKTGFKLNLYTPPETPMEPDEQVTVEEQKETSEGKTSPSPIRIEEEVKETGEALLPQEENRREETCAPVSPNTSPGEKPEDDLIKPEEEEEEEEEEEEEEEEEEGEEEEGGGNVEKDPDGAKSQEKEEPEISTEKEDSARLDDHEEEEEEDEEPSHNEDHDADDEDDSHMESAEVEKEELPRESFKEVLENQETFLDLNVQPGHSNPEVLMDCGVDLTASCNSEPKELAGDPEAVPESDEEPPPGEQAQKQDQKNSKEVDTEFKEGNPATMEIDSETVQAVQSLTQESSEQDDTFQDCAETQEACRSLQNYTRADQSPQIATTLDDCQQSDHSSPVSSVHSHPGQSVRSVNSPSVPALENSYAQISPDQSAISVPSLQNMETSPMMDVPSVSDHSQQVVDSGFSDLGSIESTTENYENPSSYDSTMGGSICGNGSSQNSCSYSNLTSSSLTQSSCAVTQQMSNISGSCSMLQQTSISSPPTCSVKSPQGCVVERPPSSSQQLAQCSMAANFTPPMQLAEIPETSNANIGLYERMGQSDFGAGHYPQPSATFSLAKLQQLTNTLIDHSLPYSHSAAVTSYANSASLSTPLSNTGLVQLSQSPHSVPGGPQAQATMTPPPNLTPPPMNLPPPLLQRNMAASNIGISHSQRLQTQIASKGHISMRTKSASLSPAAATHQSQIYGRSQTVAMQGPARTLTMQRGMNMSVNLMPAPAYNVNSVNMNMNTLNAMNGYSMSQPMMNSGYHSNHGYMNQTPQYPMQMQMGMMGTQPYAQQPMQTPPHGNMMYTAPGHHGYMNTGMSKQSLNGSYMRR
T4 sequence (Q92794 507-778 A567V limits assumed): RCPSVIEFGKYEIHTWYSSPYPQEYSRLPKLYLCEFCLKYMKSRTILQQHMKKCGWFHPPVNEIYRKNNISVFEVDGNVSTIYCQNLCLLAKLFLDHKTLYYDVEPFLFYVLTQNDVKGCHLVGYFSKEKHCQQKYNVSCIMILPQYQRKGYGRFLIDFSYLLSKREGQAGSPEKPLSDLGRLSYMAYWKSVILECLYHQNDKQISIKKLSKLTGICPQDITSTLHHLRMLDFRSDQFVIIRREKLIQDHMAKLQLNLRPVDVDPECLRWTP
T2 sequence (O95251 with tags, fused parts or gaps): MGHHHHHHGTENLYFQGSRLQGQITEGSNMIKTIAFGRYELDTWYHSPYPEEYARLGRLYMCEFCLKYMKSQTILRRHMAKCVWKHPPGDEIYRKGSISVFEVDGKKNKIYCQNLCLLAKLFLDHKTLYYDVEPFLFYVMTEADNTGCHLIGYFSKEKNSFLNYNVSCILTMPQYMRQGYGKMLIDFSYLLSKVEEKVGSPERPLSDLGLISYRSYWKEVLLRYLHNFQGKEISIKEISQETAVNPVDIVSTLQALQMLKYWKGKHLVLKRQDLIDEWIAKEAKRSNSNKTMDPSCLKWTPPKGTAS

| IC50 (MOF-KAT8 [1]) [µM] | IC50 (HBO-KAT7 [2]) [nM] | IC50 (TIP60-KAT5 [3]) [nM] | IC50 [4] [nM] | IC50 [5] [nM] | IC50 (TIP60-KAT5 [6]) [nM] | IC50 (MOF-KAT8 [7]) [µM] | IC50 (HBO-KAT7 [8]) [nM] | IC50 (MOZ-KAT6A [9]) [nM] | IC50 (MOZ-KAT6A [10]) [nM] | IC50 [11] [nM] | IC50 (QKF-KAT6B [12]) [nM] | IC50 (QKF-KAT6B [13]) [nM] | IC50 ([4]; Homo sapiens, 24 h) [nM] | IC50 ([5]; Homo sapiens, 24 h) [nM] | IC50 ([11]; Homo sapiens, U2OS, 24 h) [nM] | Compound |
| --- | --- | --- | --- | --- | --- | --- | --- | --- | --- | --- | --- | --- | --- | --- | --- | --- |
| 19.1 | 61.5 | 707 | 263 | 5050 | 1300 | 75.8 | 184 | 464 | 100 |  |  |  |  |  |  | O=C(NCC(c1ccccc1)c1ncco1)C1=Nc2ccc(Br)cc2S(=O)(=O)N1 (single isomer, unassigned) [Example 139] |
|  | 160 | 13 | 429 | 447 | 46.8 |  | 36 | 25.9 | 2 | 16 | 19 |  |  |  |  | O=C(NCC(c1ccccc1)c1ncco1)C1=Nc2ccc(I)cc2S(=O)(=O)N1 (single isomer, unassigned) [Example 146, 7-iodo-N-(2-(oxazol-2-yl)-2-phenylethyl)-2H-benzo[e][1,2,4]thiadiazine-3-carboxamide 1,1-dioxide] |
|  | 167 | 132 | 193 | 1430 | 445 |  | 57 | 645 | 29 | 482 | 311 |  |  |  |  | O=C(NCC(c1ccccc1)c1ncco1)C1=Nc2ccc(I)cc2S(=O)(=O)N1 (single isomer, unassigned) [Example 147] |
|  |  |  |  |  | > 125000 |  |  | 3120 |  |  |  | 268 |  |  |  | Cn1cc(-c2ccc3c(c2)S(=O)(=O)NC(C(=O)NCC(c2ccccc2)c2ccccc2)=N3)cn1 [Example 18, N-(2,2-diphenylethyl)-7-(1-methyl-1H-pyrazol-4-yl)-2H-benzo[e][1,2,4]thiadiazine-3-carboxamide 1,1-dioxide] |
|  | 94.4 | 32 |  |  | 61.3 |  | 59 | 17.9 | 5 |  | 28 |  | 86.1 | 1000 | 35 | O=C(NCC(c1ccccc1)c1ncco1)C1=Nc2ccc(I)cc2S(=O)(=O)N1 (stereo not shown) [Example 41, 7-iodo-N-(2-(oxazol-2-yl)-2-phenylethyl)-2H-benzo[e][1,2,4]thiadiazine-3-carboxamide 1,1-dioxide] |

— patent US20210380548A1, “Fused [1,2,4]Thiadiazine Derivatives Which Act as KAT Inhibitors of the MYST Family” (CTxT Pty Limited, priority 2017, published 2021)
